Source: PubChem BioAssay (NCI)
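Briefly, cells in 96-well plates were exposed to five compound concentrations for 48 h, and endpoints were estimated by linear interpolation. Definition used: TGI = concentration required for complete inhibition of growth.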

What was measured:
Assay in all cases: NCI anticancer screen, dose series, 48 h
[1] = tested on: UACC-62 melanoma
[2] = tested on: CAKI-1 renal
[3] = tested on: OVCAR-4 ovarian
[4] = tested on: DU-145 prostate
[5] = tested on: TK-10 renal
[6] = tested on: NCI-H522 lung
[7] = tested on: NCI/ADR-RES ovarian
[8] = tested on: SK-MEL-5 melanoma
[9] = tested on: IGROV1 ovarian
[10] = tested on: K-562 leukemia
[11] = tested on: SF-295 CNS
[12] = tested on: A549 NSCLC
[13] = tested on: HOP-62 NSCLC
[14] = tested on: HL-60(TB) leukemia
[15] = tested on: A498 renal
[16] = tested on: OVCAR-8 ovarian
[17] = tested on: EKVX NSCLC
[18] = tested on: T-47D breast
[19] = tested on: PC-3 prostate
[20] = tested on: NCI-H460 lung
[21] = tested on: SNB-75 CNS
[22] = tested on: HCT-15 colon
[23] = tested on: MALME-3M melanoma
[24] = tested on: RXF 393 renal
[25] = tested on: SNB-19 CNS
[26] = tested on: MDA-N
[27] = tested on: SK-MEL-2 melanoma
[28] = tested on: HCT-116 colon
[29] = tested on: NCI-H23 lung
[30] = tested on: U251 CNS
[31] = tested on: M14 melanoma
[32] = tested on: BT-549 breast
[33] = tested on: SK-OV-3 ovarian
[34] = tested on: CCRF-CEM leukemia
[35] = tested on: SF-268 CNS
[36] = tested on: SK-MEL-28 melanoma
[37] = tested on: UO-31 renal
[38] = tested on: UACC-257 melanoma
[39] = tested on: MCF7 breast
[40] = tested on: MOLT-4 leukemia
[41] = tested on: HCC-2998 colon
[42] = tested on: RPMI-8226 leukemia
[43] = tested on: SW-620 colon
[44] = tested on: OVCAR-3 ovarian
[45] = tested on: HOP-92 NSCLC
[46] = tested on: SN12C renal
[47] = tested on: 786-0 renal
[48] = tested on: MDA-MB-435
[49] = tested on: HS 578T breast
[50] = tested on: KM12 colon
[51] = tested on: COLO 205 colon
[52] = tested on: ACHN renal
[53] = tested on: HT29 colon
[54] = tested on: MDA-MB-231 breast
[55] = tested on: SR leukemia
[56] = tested on: SF-539 CNS
[57] = tested on: OVCAR-5 ovarian
[58] = tested on: NCI-H226 lung
[59] = tested on: LOX IMVI melanoma

CC(O)C1(CNc2cc(Cl)nc(N)n2)CCCC1 (stereo not drawn)
TGI [1]: > 100 µM | TGI [2]: > 100 µM | TGI [3]: > 100 µM | TGI [4]: > 100 µM | TGI [5]: > 100 µM | TGI [6]: > 100 µM | TGI [7]: > 100 µM | TGI [8]: > 100 µM | TGI [9]: > 100 µM | TGI [10]: > 100 µM | TGI [11]: > 100 µM | TGI [12]: > 100 µM | TGI [13]: > 100 µM | TGI [14]: > 100 µM | TGI [15]: > 100 µM | TGI [16]: > 100 µM | TGI [17]: > 100 µM | TGI [18]: > 100 µM | TGI [19]: > 100 µM | TGI [20]: > 100 µM | TGI [21]: > 100 µM | TGI [22]: > 100 µM | TGI [23]: > 100 µM | TGI [24]: > 100 µM | TGI [25]: > 100 µM | TGI [26]: > 100 µM | TGI [27]: > 100 µM | TGI [28]: > 100 µM | TGI [29]: > 100 µM | TGI [30]: > 100 µM | TGI [31]: > 100 µM | TGI [32]: > 100 µM | TGI [33]: > 100 µM | TGI [34]: > 100 µM | TGI [35]: > 100 µM | TGI [36]: > 100 µM | TGI [37]: > 100 µM | TGI [38]: > 100 µM | TGI [39]: > 100 µM | TGI [40]: > 100 µM | TGI [41]: > 100 µM | TGI [42]: > 100 µM | TGI [43]: > 100 µM | TGI [44]: > 100 µM | TGI [45]: > 100 µM | TGI [46]: > 100 µM | TGI [47]: > 100 µM | TGI [48]: > 100 µM | TGI [49]: > 100 µM | TGI [50]: > 100 µM | TGI [51]: > 100 µM | TGI [52]: > 100 µM | TGI [53]: > 100 µM | TGI [54]: > 100 µM | TGI [55]: > 100 µM | TGI [56]: > 100 µM | TGI [57]: > 100 µM | TGI [58]: > 100 µM | TGI [59]: > 100 µM

Clc1ccc(C2c3ccccc3-c3nc4ccccc4n32)cc1 (stereo not drawn)
TGI [1]: > 69.4 µM | TGI [2]: > 100 µM | TGI [3]: > 73 µM | TGI [4]: > 100 µM | TGI [5]: > 100 µM | TGI [6]: 67.9 µM | TGI [7]: > 68.2 µM | TGI [8]: > 100 µM | TGI [9]: > 86.1 µM | TGI [10]: > 100 µM | TGI [11]: > 36.6 µM | TGI [12]: > 78.7 µM | TGI [13]: 62.8 µM | TGI [14]: > 83.3 µM | TGI [15]: > 79.9 µM | TGI [16]: > 79.5 µM | TGI [17]: > 73.9 µM | TGI [18]: > 100 µM | TGI [19]: > 77.1 µM | TGI [20]: > 100 µM | TGI [21]: > 100 µM | TGI [22]: > 100 µM | TGI [23]: 82.3 µM | TGI [24]: 17.8 µM | TGI [25]: > 64.8 µM | TGI [26]: > 100 µM | TGI [27]: > 65.4 µM | TGI [28]: > 53.3 µM | TGI [29]: > 100 µM | TGI [30]: > 100 µM | TGI [31]: 99 µM | TGI [32]: > 100 µM | TGI [33]: > 39 µM | TGI [34]: > 100 µM | TGI [35]: > 63.9 µM | TGI [36]: > 100 µM | TGI [37]: > 60.5 µM | TGI [38]: > 100 µM | TGI [39]: > 68.1 µM | TGI [40]: > 51.7 µM | TGI [41]: > 75.2 µM | TGI [42]: > 65 µM | TGI [43]: > 100 µM | TGI [44]: 37.2 µM | TGI [45]: > 100 µM | TGI [46]: > 100 µM | TGI [47]: 51 µM | TGI [48]: > 100 µM | TGI [49]: > 100 µM | TGI [50]: > 100 µM | TGI [51]: > 100 µM | TGI [52]: > 100 µM | TGI [53]: > 88.9 µM | TGI [54]: > 100 µM | TGI [55]: > 54.4 µM | TGI [56]: > 95.4 µM | TGI [57]: > 75 µM | TGI [58]: > 64.5 µM | TGI [59]: 59.2 µM
